Experimental findings from article PMC8351955, “Targeting Mycobacterium tuberculosis response to environmental cues for the development of effective antitubercular drugs” (PLoS Biology, 2021) are described below.

Read-outs that look alike come from different tables or passages of the source.

Assay [1] relates to CDC1551(rv1405c′::GFP) reporter Mtb strain. The experiment in a line: microbe, parasite or virus in culture. Type of assay: cell-based, Mycobacterium tuberculosis. The note with it: Mycobacterium tuberculosis; for activity at 10 µM: read-out: rv1405c'::GFP secondary assay NPA% at 10 µM compound; for activity at 20 µM: read-out: rv1405c'::GFP secondary assay NPA% at 20 µM compound.

Assay [2] concerns CDC1551(rv2390c′::GFP) reporter Mtb strain, response to high [Cl−]. The experiment in a line: microbe, parasite or virus in culture. Type of assay: cell-based, Mycobacterium tuberculosis. The note with it: Mycobacterium tuberculosis, 144 h; for activity at 20 µM: read-out: rv2390c'::GFP validation assay NPA% at 20 µM compound.
[3] abbreviates: pH 6.4, […], DMSO positive control = 100%, read-out: Primary screen rv2390c'::GFP NPA%.
Where [4] appears, read: 10 µM, pH 6.4, 250 mM NaCl, 6 days, read-out: rv2390c'::GFP validation assay NPA% at 10 µM compound.

As for `CC(CNC(=O)Nc1cccc(-c2noc(=O)[nH]2)c1)c1ccccc1` (stereo not drawn) [RU-0182956, CC(CNC(=O)NC1=CC(=CC=C1)C1=NOC(=O)N1)C1=CC=CC=C1], the activity at 10 µM is 38.3 ± 1.6% in assay [1], 48.1% in assay [2] (setting [3]) and 66.7 ± 2.4% in assay [2] (setting [4]). Further, the activity at 20 µM in assay [1] worked out at 9.7 ± 1.2%; in assay [2] (pH 6.4, 250 mM NaCl, 6 days) it was 39 ± 3.5%.
The matching figures for `COc1ccc2c(C)cc(Nc3cc(F)ccc3C)nc2c1` [RU-0202188, COC1=CC2=C(C=C1)C(C)=CC(NC1=C(C)C=CC(F)=C1)=N2]: 206 ± 10.4%, 159%, 128 ± 12.2%, 256 ± 16.6% and 132 ± 17.8%.
In the same order, the values of `CC(SCc1cc(=O)n2nc(N)[nH]c2n1)c1ccccc1Cl` (stereo not drawn) [RU-0182827, CC(SCC1=CC(=O)N2N=C(N)NC2=N1)C1=C(Cl)C=CC=C1] are 6.6 ± 1.1%, 11.2%, 13.3 ± 4.2%, 9.7 ± 3.1% and 20 ± 4.4%.
The matching figures for `CC(C)c1cc(C2CCN(C(=O)c3nc(C(C)C)cs3)CC2)[nH]n1` [RU-0259583, CC(C)C1=CSC(=N1)C(=O)N1CCC(CC1)C1=CC(=NN1)C(C)C]: 81.6 ± 6.6%, 156%, 103 ± 2.6%, 99.6 ± 21.4% and 130 ± 8.6%.
Turning to `CCc1nnc(NC(=O)c2sc(CC(C)C)nc2C)s1` [RU-0274734, CCC1=NN=C(NC(=O)C2=C(C)N=C(CC(C)C)S2)S1], the results for the activity at 10 µM in assay [1], in assay [2] (setting [3]) and in assay [2] (setting [4]) were 97.2 ± 4.2%, 170% and 150.7 ± 1.2%, respectively. For the same compound, the activity at 20 µM in assay [1] is 102 ± 3.9%; in assay [2] (pH 6.4, 250 mM NaCl, 6 days), 178 ± 7.2%.
Take `Cc1csc(/C(C#N)=C\c2ccc(C3CC3C)o2)n1` (stereo not drawn) [RU-0200280, CC1CC1C1=CC=C(O1)\C=C(\C#N)C1=NC(C)=CS1]: the activity at 10 µM came out at 399 ± 31.8% in assay [1], 277% in assay [2] (setting [3]) and 144 ± 5.5% in assay [2] (setting [4]). Also, in assay [2] (pH 6.4, 250 mM NaCl, 6 days), the activity at 20 µM is 248 ± 21.2%.
As to `O=C(c1nccc2ccccc12)N1CCN(CC2CCCC2)CC1` [RU-0257267, O=C(N1CCN(CC2CCCC2)CC1)C1=C2C=CC=CC2=CC=N1], the activity at 10 µM in assay [1] was found to be 267 ± 23%; in assay [2] (setting [3]) it was 199%; in assay [2] (setting [4]) it was 140.3 ± 0.6%. For the same compound, the activity at 20 µM in assay [1] was found to be 822 ± 58.1%; in assay [2] (pH 6.4, 250 mM NaCl, 6 days) it was 254 ± 8.7%.
The matching figures for `CCc1ccc(NC(=O)C2(N(C)C)Cc3ccccc3C2)cc1` [RU-0276433, CCC1=CC=C(NC(=O)C2(CC3=C(C2)C=CC=C3)N(C)C)C=C1]: 171 ± 9.3%, 157%, 124 ± 10.1%, 312 ± 25.3% and 186 ± 4.9%.
The matching figures for `COCCOc1ccc(NS(=O)(=O)c2cn(C)c(Cl)n2)cn1` [RU-0203727, COCCOC1=NC=C(NS(=O)(=O)C2=CN(C)C(Cl)=N2)C=C1]: 330 ± 19.1%, 277%, 168 ± 16.8%, 996 ± 23.7% and 309 ± 6.8%.
Take `COc1ccc(NCc2ccc(OC)c(Br)c2)cn1` [RU-0270711, COC1=NC=C(NCC2=CC(Br)=C(OC)C=C2)C=C1]: the activity at 10 µM in assay [1] was 227 ± 8.7%; in assay [2] (setting [3]), 162%; in assay [2] (setting [4]) it was 135 ± 4%. Further, the activity at 20 µM in assay [1] came out at 603 ± 10.5%; in assay [2] (pH 6.4, 250 mM NaCl, 6 days) it was 292 ± 6.7%.
On to `CC(=O)N1N=C(c2c(-c3ccccc3)c3ccc(C)cc3[nH]c2=O)CC1c1ccco1` (stereo not drawn) [RU-0204568, CC(=O)N1N=C(CC1C1=CC=CO1)C1=C(C2=CC=CC=C2)C2=C(NC1=O)C=C(C)C=C2], for which the activity at 10 µM in assay [1] amounted to 102 ± 12.9%; in assay [2] (setting [3]), 162%; in assay [2] (setting [4]), 125 ± 9.5%. Besides, the activity at 20 µM in assay [1] amounted to 116 ± 27.3%; in assay [2] (pH 6.4, 250 mM NaCl, 6 days), 198 ± 21%.
The matching figures for `CCc1nc(C(=O)Nc2nc(C#N)c(C#N)[nH]2)nn1-c1ccccc1Cl` [RU-0208082, CCC1=NC(=NN1C1=C(Cl)C=CC=C1)C(=O)NC1=NC(C#N)=C(N1)C#N]: 418 ± 56.2%, 309%, 258 ± 15.1%, 677 ± 106% and 380 ± 38.2%.
The matching figures for `Cc1ccc(-c2nc3nc(N)n(C)c(=O)c3nc2-c2ccc(C)cc2)cc1` [RU-0192424, CN1C(N)=NC2=NC(C3=CC=C(C)C=C3)=C(N=C2C1=O)C1=CC=C(C)C=C1]: 97 ± 3.1%, 160%, 140 ± 10.1%, 120 ± 9.3% and 169 ± 12.3%.
In the same order, the values of `COCCCC(=O)Nc1cccc(NC2CCCC2)c1` [RU-0215502, COCCCC(=O)NC1=CC(NC2CCCC2)=CC=C1] are 342 ± 33.3%, 216%, 152 ± 5%, 804 ± 46.8% and 276 ± 16.4%.
Regarding `Cn1cccc1C(=O)NS(=O)(=O)c1ccc(C#N)c(Cl)c1` [RU-0207640, CN1C=CC=C1C(=O)NS(=O)(=O)C1=CC(Cl)=C(C=C1)C#N], the activity at 10 µM in assay [1] amounted to 175 ± 20%; in assay [2] (setting [3]) it was 177%; in assay [2] (setting [4]), 148 ± 12.2%. Also, the activity at 20 µM in assay [1] turned out to be 357 ± 29.5%; in assay [2] (pH 6.4, 250 mM NaCl, 6 days), 203 ± 22.6%.
In the same order, the values of `CC(OC(=O)CC(C)(C)C)c1nc2cc(Cl)ccc2n1C` (stereo not drawn) [RU-0203619, CC(OC(=O)CC(C)(C)C)C1=NC2=C(C=CC(Cl)=C2)N1C] are 75.6 ± 6.2%, 153%, 95.6 ± 13.8%, 96.6 ± 5.5% and 131 ± 11%.
For the compound `Cc1ccc(NC(=O)c2cc(C)n(C3CC3)c2C)c(C)c1` [RU-0276186, CC1=CC(C(=O)NC2=C(C)C=C(C)C=C2)=C(C)N1C1CC1], the figures for the activity at 10 µM in assay [1], in assay [2] (setting [3]) and in assay [2] (setting [4]) were 95.4 ± 4.5%, 159% and 105 ± 5.3%, respectively. Moreover, the activity at 20 µM in assay [1] worked out at 123 ± 13.3%; in assay [2] (pH 6.4, 250 mM NaCl, 6 days), 157 ± 13.8%.
Take `CCN(CC)c1ccc2c(NC3CCCCC3)nc(=O)oc2c1` [RU-0196346, CCN(CC)C1=CC2=C(C=C1)C(NC1CCCCC1)=NC(=O)O2]: the activity at 10 µM in assay [1] came to 110 ± 13%; in assay [2] (setting [3]), 183%; in assay [2] (setting [4]) it was 161 ± 6.2%. Further, the activity at 20 µM turned out to be 115 ± 9.5% in assay [1] and 192 ± 12.4% in assay [2] (pH 6.4, 250 mM NaCl, 6 days).
Turning to `O=C(Cc1ccc2c(c1)CCC2)NCc1ccccc1F` [RU-0268882, FC1=C(CNC(=O)CC2=CC3=C(CCC3)C=C2)C=CC=C1], the values for the activity at 10 µM in assay [1], in assay [2] (setting [3]) and in assay [2] (setting [4]) were 103 ± 10.5%, 175% and 130 ± 7%, respectively. Further, the activity at 20 µM in assay [1] was 105 ± 20.7%; in assay [2] (pH 6.4, 250 mM NaCl, 6 days) it was 176 ± 16.5%.
In the same order, the values of `CC(C)CCOc1ccc(C(=O)Nc2cc(Cl)ccc2C(N)=O)cc1` [RU-0202925, CC(C)CCOC1=CC=C(C=C1)C(=O)NC1=C(C=CC(Cl)=C1)C(N)=O] are 63.2 ± 8.6%, 46.5%, 57.1 ± 7.4%, 61.8 ± 14.4% and 60.8 ± 9.8%.
